# Measurements published in ChEMBL document CHEMBL5665443, “Enzyme Inhibitor Single Concentration assay results for EUbOPEN Chemogenomics Library” (2024).
# Columns and labels:
# [1] = molecular target: Methyl-CpG-binding domain protein 4 (Homo sapiens) (UniProt O95243); details: Compound Concentration 10.0 uM, Hit No;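 note: MBD4 activity read as fluorescence at 594 nm from cleavage and release of a quenched duplex DNA oligonucleotide, with APE1 coupled to incise the strand and raise turnover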
# Description: Inhibition of MBD4 by quantifying inhibition of MBD4-mediated cleavage and dissociation of quenched duplex DNA oligonucleotides, measured as fluorescence at 594 nm. To generate a functional strand incision and increase turn-over this assay is coupled to APE1.
# [2] = molecular target: DNA-3-methyladenine glycosylase (Homo sapiens) (UniProt P29372); details: Compound Concentration 10.0 uM, Hit No;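 note: enzyme assay where MPG cuts a quenched duplex DNA oligonucleotide probe, paired with APE1 for strand incision and turnover, read as fluorescence at 594 nm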
# Sequence of DNA-3-methyladenine glycosylase (Homo sapiens) (P29372 whole entry): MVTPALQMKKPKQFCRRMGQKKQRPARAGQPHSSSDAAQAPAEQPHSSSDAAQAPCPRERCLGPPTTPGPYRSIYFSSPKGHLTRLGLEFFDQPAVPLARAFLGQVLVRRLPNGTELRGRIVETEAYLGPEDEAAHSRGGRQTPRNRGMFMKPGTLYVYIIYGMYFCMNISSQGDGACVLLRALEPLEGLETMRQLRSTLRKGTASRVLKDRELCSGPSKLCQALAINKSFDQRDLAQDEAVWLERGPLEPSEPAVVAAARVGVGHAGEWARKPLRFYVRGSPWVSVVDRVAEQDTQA
# Description: Inhibition of MPG by quantifying inhibition of MPG-mediated cleavage and dissociation of quenched duplex DNA oligonucleotides, measured as fluorescence at 594 nm. To generate a functional strand incision and increase turn-over this assay is coupled to APE1.
# [3] = molecular target: T1, Adenine DNA glycosylase (Homo sapiens) (UniProt Q9UIF7); details: Compound Concentration 10.0 uM, Hit No;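 note: human MUTYH activity read as 594 nm fluorescence from cleavage and release of a quenched DNA duplex, coupled with APE1 for strand incision, lower signal meaning inhibition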
# T1 sequence (whole entry): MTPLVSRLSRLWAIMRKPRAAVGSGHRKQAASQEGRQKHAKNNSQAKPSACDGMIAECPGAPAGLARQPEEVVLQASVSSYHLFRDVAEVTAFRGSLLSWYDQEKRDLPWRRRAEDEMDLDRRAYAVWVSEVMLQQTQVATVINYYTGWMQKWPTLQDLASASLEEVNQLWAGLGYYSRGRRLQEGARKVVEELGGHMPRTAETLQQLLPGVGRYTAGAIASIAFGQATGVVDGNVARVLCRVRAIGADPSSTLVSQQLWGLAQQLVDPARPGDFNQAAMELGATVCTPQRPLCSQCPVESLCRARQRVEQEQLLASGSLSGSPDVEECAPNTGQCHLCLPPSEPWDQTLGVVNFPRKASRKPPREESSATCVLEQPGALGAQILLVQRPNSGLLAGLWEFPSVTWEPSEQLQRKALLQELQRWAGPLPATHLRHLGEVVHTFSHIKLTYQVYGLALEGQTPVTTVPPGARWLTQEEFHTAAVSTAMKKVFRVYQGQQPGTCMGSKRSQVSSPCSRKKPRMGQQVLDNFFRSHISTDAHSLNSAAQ
# Description: Inhibition of MUTYH by quantifying inhibition of MUTYH-mediated cleavage and dissociation of quenched duplex DNA oligonucleotides, measured as fluorescence at 594 nm. To generate a functional strand incision and increase turn-over this assay is coupled to APE1.
# [4] = molecular target: Endonuclease 8-like 1 (Homo sapiens) (UniProt Q96FI4); details: Compound Concentration 10.0 uM, Hit No;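 note: fluorescence at 594 nm from quenched duplex DNA oligonucleotides released by NEIL1 cleavage and strand separation, reported as reduction of this enzyme activity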
# Sequence of Endonuclease 8-like 1 (Homo sapiens) (Q96FI4 whole entry): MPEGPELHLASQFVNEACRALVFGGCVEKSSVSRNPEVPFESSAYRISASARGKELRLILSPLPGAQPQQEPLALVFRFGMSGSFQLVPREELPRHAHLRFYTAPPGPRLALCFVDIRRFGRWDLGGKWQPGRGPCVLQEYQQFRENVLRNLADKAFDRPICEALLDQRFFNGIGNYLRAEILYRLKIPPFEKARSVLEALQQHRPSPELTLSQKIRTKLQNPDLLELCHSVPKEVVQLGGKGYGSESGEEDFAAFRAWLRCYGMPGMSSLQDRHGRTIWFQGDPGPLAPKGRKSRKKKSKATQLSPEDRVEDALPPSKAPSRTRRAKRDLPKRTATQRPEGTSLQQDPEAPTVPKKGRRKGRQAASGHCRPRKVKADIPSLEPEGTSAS
# Description: Inhibition of NEIL1 by quantifying inhibition of NEIL1-mediated cleavage and dissociation of quenched duplex DNA oligonucleotides, measured as fluorescence at 594 nm.
# [5] = molecular target: T2, Endonuclease 8-like 2 (Homo sapiens) (UniProt Q969S2); details: Compound Concentration 10.0 uM, Hit No;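 note: fluorescence at 594 nm reports NEIL2 cutting and release of a quenched double-stranded DNA oligo substrate, reduced signal read as inhibition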
# T2 sequence (whole entry): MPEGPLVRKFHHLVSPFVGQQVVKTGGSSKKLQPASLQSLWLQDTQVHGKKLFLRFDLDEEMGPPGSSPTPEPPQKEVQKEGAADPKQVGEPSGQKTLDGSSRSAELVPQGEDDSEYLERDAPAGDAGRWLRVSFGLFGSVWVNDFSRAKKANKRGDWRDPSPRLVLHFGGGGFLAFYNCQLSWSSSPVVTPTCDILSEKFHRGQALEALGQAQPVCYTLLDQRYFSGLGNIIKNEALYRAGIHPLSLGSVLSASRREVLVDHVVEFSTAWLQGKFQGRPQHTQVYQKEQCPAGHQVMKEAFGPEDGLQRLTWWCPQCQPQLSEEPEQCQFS
# Description: Inhibition of NEIL2 by quantifying inhibition of NEIL2-mediated cleavage and dissociation of quenched duplex DNA oligonucleotides, measured as fluorescence at 594 nm.
# [6] = molecular target: N-glycosylase/DNA lyase (Homo sapiens) (UniProt O15527); details: Compound Concentration 10.0 uM;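 note: OGG1 cleavage of a quenched duplex DNA oligonucleotide, coupled to APE1 for strand incision, read as fluorescence at 594 nm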
# Sequence of N-glycosylase/DNA lyase (Homo sapiens) (O15527 whole entry): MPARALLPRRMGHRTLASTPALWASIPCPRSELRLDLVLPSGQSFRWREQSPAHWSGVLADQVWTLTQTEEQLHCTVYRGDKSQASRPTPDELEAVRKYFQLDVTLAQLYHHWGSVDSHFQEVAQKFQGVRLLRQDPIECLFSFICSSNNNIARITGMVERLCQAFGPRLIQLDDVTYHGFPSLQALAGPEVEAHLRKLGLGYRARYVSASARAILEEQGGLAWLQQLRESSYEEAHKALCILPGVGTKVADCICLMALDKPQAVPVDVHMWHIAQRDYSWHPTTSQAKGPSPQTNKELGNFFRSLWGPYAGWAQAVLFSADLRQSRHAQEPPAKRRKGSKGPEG
# Description: Inhibition of OGG1 by quantifying inhibition of OGG1-mediated cleavage and dissociation of quenched duplex DNA oligonucleotides, measured as fluorescence at 594 nm. To generate a functional strand incision and increase turn-over this assay is coupled to APE1.
# [7] = molecular target: T3, Single-strand selective monofunctional uracil DNA glycosylase (Homo sapiens) (UniProt Q53HV7); details: Compound Concentration 10.0 uM, Hit No;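 note: enzymatic SMUG1 assay coupled with APE1, reading fluorescence at 594 nm released when a quenched double-stranded DNA oligonucleotide substrate is cleaved and separated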
# T3 sequence (whole entry): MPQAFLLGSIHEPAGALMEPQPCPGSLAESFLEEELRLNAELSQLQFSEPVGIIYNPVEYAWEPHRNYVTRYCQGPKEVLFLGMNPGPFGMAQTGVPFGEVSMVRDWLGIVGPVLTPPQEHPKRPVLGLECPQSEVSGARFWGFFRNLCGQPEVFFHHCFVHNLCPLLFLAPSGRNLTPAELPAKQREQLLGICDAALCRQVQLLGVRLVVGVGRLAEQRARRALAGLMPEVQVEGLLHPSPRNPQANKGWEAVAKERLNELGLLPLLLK
# Description: Inhibition of SMUG1 by quantifying inhibition of SMUG1-mediated cleavage and dissociation of quenched duplex DNA oligonucleotides, measured as fluorescence at 594 nm. To generate a functional strand incision and increase turn-over this assay is coupled to APE1.
# [8] = molecular target: G/T mismatch-specific thymine DNA glycosylase (Homo sapiens) (UniProt Q13569); details: Compound Concentration 10.0 uM, Hit No;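 note: human TDG cleavage of quenched duplex DNA oligonucleotides coupled to APE1, strand release read as fluorescence at 594 nm, inhibition of TDG activity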
# Sequence of G/T mismatch-specific thymine DNA glycosylase (Homo sapiens) (Q13569 whole entry): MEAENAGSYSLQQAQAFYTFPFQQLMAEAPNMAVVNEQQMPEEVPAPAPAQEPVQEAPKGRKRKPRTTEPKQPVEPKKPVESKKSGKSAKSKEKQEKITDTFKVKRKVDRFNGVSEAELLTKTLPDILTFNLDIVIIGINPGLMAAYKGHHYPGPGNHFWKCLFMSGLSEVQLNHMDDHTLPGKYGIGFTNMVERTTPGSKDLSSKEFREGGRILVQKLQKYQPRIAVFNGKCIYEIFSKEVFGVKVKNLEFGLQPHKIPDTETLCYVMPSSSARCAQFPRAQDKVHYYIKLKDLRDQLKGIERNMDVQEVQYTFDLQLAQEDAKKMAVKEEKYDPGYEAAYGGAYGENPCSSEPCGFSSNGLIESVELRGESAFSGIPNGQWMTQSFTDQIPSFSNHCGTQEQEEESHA
# Description: Inhibition of TDG by quantifying inhibition of TDG-mediated cleavage and dissociation of quenched duplex DNA oligonucleotides, measured as fluorescence at 594 nm. To generate a functional strand incision and increase turn-over this assay is coupled to APE1.
# [9] = molecular target: Uracil-DNA glycosylase (Homo sapiens) (UniProt P13051); details: Compound Concentration 10.0 uM, Hit No;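 note: UNG excision on a quenched double-stranded DNA oligo probe, with APE1 added for strand incision and turnover, read as fluorescence at 594 nm as strands separate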
# Sequence of Uracil-DNA glycosylase (Homo sapiens) (P13051 whole entry): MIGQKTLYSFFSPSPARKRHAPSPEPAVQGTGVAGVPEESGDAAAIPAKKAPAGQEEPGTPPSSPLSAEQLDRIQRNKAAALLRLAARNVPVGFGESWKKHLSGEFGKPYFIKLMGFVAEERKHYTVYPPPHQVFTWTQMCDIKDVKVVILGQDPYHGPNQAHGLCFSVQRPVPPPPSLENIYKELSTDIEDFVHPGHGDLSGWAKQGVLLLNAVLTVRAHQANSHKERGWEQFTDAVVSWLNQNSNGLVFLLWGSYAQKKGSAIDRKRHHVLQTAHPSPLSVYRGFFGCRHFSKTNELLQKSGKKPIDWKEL
# Description: Inhibition of UNG by quantifying inhibition of UNG-mediated cleavage and dissociation of quenched duplex DNA oligonucleotides, measured as fluorescence at 594 nm. To generate a functional strand incision and increase turn-over this assay is coupled to APE1.
# Sequence of Methyl-CpG-binding domain protein 4 (Homo sapiens) (O95243 whole entry, the tested form may be a part): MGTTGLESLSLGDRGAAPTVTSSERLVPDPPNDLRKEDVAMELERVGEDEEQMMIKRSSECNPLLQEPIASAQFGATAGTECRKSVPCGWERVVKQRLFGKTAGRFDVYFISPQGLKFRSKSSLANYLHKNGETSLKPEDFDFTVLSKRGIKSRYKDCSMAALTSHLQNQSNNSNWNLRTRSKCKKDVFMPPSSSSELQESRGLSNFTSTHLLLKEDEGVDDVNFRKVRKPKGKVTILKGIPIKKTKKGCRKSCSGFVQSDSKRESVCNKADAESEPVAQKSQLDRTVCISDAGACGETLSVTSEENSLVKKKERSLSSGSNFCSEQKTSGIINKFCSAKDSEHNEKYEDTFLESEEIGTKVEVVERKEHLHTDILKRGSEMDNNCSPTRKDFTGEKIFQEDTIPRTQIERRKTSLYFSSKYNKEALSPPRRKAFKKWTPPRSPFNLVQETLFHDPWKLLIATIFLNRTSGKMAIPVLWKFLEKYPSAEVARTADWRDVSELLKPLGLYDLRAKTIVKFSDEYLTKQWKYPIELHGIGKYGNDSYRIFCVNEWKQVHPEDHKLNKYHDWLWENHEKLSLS
Structure (SMILES),inhibition [1] [%],inhibition [2] [%],inhibition [3] [%],inhibition [4] [%],inhibition [5] [%],inhibition ([6]; Hit No) [%],inhibition [7] [%],inhibition [8] [%],inhibition [9] [%],inhibition ([6]; Hit Yes) [%]
COc1ccc(Br)cc1S(=O)(=O)NC(=O)/C=C/c1ccccc1Cc1ccc2ccccc2c1,18,-3.79,5.65,0.537,6.5,30.2,-2.31,2.91,–,–
COc1c(Nc2ccc(S(C)(=O)=O)nc2C)ncnc1OC1CCN(C(=O)OC(C)C)CC1,-6.99,-8.34,16.4,-6.28,6,-1.26,-7.64,-5.57,–,–
CCN(Cc1ccncc1)C(=O)C(CO)c1ccccc1 (stereo unspecified),1.02,3.77,14,-2.58,9.75,-6.9,–,7.61,–,–
CC(=O)Nc1nc2c(Oc3cc(-c4ccc(C(F)(F)F)cc4)ncn3)cccc2s1,1.85,11.2,-8.12,4.31,-1.88,–,-4.87,-3.88,-3.19,–
Cc1cccc(S(=O)(=O)N(C)[C@H](C)CCN2CCC(C)CC2)c1,3.33,-2.23,9.55,1.79,6.53,–,1.46,1.58,-5.83,–
O=C(O)COc1cccc(CN(Cc2ccc(-n3cccn3)cc2)S(=O)(=O)c2cccnc2)c1,13.1,2.46,5.01,0.389,-7.47,–,-3.28,-2.75,–,–
CCCCC#Cc1nc(NC)c2ncn([C@@H]3O[C@H](CO)[C@@H](O)[C@H]3O)c2n1,0.324,-9.85,-0.235,-4.5,5.51,-7.52,-0.13,-7.72,–,–
CC(C)C[C@H](NC(=O)N1CCCCCC1)C(=O)N[C@H](Cc1cn(C)c2ccccc12)C(=O)N[C@H](Cc1ccccn1)C(=O)O,-1.3,-0.244,9.62,-0.0556,6,-9.37,–,3.66,-6.34,–
COc1cc(C(=O)N(CCCc2ccccc2)Cc2ccc(CC(=O)O)cc2)cc(OC)c1C,21.5,2.65,20.4,-1.83,-7.97,-6.84,-4.44,17.3,–,–
Cc1ccc(/C(=C\CN2CCCC2)c2ccccn2)cc1,-4.67,-1.09,2.96,5.28,-2.48,-5.51,–,1.66,–,–
C=CC(=O)Nc1ccc2[nH]c(=O)n(C3CCN(C(=O)c4ccc(-c5nc6cc[nH]c(=O)c6cc5-c5ccccc5)cc4)CC3)c2c1,-5.4,-2.18,1.89,-0.919,19.4,78.5,–,58.7,-1.3,–
CC(C)N(CCCCOCC(=O)NS(C)(=O)=O)c1cnc(-c2ccccc2)c(-c2ccccc2)n1,80.6,55.8,47.5,9.29,6.75,17.1,-1.68,51,–,–
NS(=O)(=O)c1cncc(-c2nc(NCc3ccccn3)c3c(-c4ccccc4)cccc3n2)c1,16,0.0701,8.92,10.4,-1.88,–,7.73,14.7,0.783,–
Cc1ccc(-c2ccc(F)cc2COc2ccc(CCC(=O)O)cc2)cc1,34.9,13.7,37.1,4.39,4.26,31.9,–,27.6,–,–
CNC[C@H](O)c1ccc(O)c(O)c1,46.8,10.2,28.8,9.88,–,30.3,–,37.5,–,–
CN(C)c1ccnc2sc3c(=O)n(N4CCCCCC4)cnc3c12,-2.87,2.57,6.93,7.65,16,18.5,-6.77,5.33,–,–
CCC[C@H](Oc1cc(C)c(-n2cc(C(F)(F)F)cn2)c(C)c1)c1ccc(C(=O)NCCC(=O)O)cc1,19.8,-2.83,39.2,4.69,6.5,8.48,–,24.9,–,–
COc1cc(/C=C/C(=O)NCCn2c(C)cc3ccccc32)cc(OC)c1OC,11.5,27.9,6.04,-9.62,4.49,–,-8.26,15.6,-0.0662,–
COc1cccc(-c2c(C)n(Cc3c(F)cccc3C(F)(F)F)c(=O)n(C[C@H](NCCCC(=O)O)c3ccccc3)c2=O)c1F,-5.02,1.07,1.3,-2.87,-9.22,-3.13,–,27.2,–,–
CC(COc1ccccc1)N(CCCl)Cc1ccccc1 (stereo unspecified),6.02,8.43,20.2,-3.32,5.01,–,-8.75,9.17,–,41.7
O=C(Cc1ccccc1)Nc1nc2ccc(Cl)cc2c2nc(-c3ccco3)nn12,-7.05,6.12,13.8,-6.88,-4.48,-2.3,–,4.82,–,–
CC(C)NC(=O)c1ccc(C#Cc2ccncc2)cn1,-1.07,-5.61,12.7,7.51,5.76,2.41,2.68,8.93,–,–
CCCc1nc2c(C)cc(-c3nc4ccccc4n3C)cc2n1Cc1ccc(-c2ccccc2C(=O)O)cc1,15.7,-0.129,24.6,15.1,15.5,–,3.75,18.9,-6.03,–
CCc1cc2c(c(CC)n1)CCC(=O)N2Cc1ccc(-c2ccccc2-c2nnn[nH]2)cc1,2.76,6.08,24.1,13.9,2.26,6.16,-8.27,13.7,–,–
CC#C[C@@H](CC(=O)O)c1ccc(OCc2cccc(-c3ccc(C(F)(F)F)cc3)c2)cc1,48.1,28.7,47.2,1.13,0.764,–,–,41.7,-4.48,64.3
Cc1cc([C@@H](C)Nc2cccc(-c3cc(C)c(C(=O)N[C@@H](C)C(=O)O)c(C)c3)c2)ccc1Cl,41.7,24.6,43.4,-0.204,-3.73,24.2,–,36.1,-6.25,–
Cc1c(F)cccc1NC(=O)Nc1ccc(Cl)c(S(=O)(=O)[C@H]2CCCNC2)c1O,0.266,11.6,-4.97,–,-7.22,–,-3.57,3.94,-9.51,–
